Measurements from ChEMBL document CHEMBL1759971, “Substituted phenyl triazoles as selective inhibitors of 11β-Hydroxysteroid Dehydrogenase Type 1” (Bioorg Med Chem Lett, 2011).

Legend:
Mus musculus [1] = assay: Inhibition of 11beta-HSD1 in ICR mouse assessed as conversion of [3H]cortisone to [3H]cortisol at 10 mg/kg, po after 4 hrs by scintillation counting; assay type: functional
[2] = molecular target: T1, Nuclear receptor subfamily 1 group I member 2 (Homo sapiens, UniProt O75469); assay: Agonist activity at PXR at 10 uM; assay type: functional
T1 sequence (O75469 whole entry): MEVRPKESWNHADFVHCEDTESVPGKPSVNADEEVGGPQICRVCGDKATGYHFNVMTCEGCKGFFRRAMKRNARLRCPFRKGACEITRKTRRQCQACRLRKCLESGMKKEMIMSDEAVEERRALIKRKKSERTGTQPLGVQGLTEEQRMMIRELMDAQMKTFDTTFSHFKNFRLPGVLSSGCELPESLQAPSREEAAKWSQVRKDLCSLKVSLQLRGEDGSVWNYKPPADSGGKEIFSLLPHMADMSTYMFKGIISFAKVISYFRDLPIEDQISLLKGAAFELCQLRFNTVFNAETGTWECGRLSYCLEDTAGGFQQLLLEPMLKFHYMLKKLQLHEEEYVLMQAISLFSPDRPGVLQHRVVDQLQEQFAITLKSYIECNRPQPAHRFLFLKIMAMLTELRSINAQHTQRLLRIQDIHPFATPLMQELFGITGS

[3] = molecular target: T1, Nuclear receptor subfamily 1 group I member 2; assay: Agonist activity at PXR; assay type: functional
Mus musculus [4] = assay: Inhibition of 11beta-HSD1 in ICR mouse assessed as conversion of [3H]cortisone to [3H]cortisol at 10 mg/kg, po after 16 hrs by scintillation counting; assay type: functional
[5] = molecular target: 11-beta-hydroxysteroid dehydrogenase 1 (Mus musculus, UniProt P50172); assay: Inhibition of mouse 11beta-HSD1 expressed in CHO-K1 cells assessed as conversion of [3H]cortisone to [3H]cortisol by scintillation counting; assay type: cell-based
Chain of 11-beta-hydroxysteroid dehydrogenase 1 (Mus musculus, UniProt P50172) (P50172 whole entry): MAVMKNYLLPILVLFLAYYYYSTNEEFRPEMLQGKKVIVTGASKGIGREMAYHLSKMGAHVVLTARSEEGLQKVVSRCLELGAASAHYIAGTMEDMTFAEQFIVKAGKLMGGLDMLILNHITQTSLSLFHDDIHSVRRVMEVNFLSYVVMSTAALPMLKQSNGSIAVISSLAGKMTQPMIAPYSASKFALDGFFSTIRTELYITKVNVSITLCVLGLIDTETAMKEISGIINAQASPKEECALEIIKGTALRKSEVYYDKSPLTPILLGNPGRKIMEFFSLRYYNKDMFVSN

[6] = molecular target: 11-beta-hydroxysteroid dehydrogenase 1 (Homo sapiens, UniProt P28845); assay: Inhibition of human 11beta-HSD1 expressed in CHO-K1 cells assessed as conversion of [3H]cortisone to [3H]cortisol by scintillation counting; assay type: cell-based
Chain of 11-beta-hydroxysteroid dehydrogenase 1 (Homo sapiens, UniProt P28845) (P28845 whole entry): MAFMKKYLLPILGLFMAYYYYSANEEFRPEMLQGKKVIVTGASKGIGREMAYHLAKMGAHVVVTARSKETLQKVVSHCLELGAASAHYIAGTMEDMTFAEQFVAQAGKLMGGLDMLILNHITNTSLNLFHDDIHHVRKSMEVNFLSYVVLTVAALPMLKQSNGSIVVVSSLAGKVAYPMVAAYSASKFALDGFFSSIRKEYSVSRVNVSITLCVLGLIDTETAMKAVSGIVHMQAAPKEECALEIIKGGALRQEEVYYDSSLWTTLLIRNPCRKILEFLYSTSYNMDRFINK

[7] = molecular target: T2, 11-beta-hydroxysteroid dehydrogenase type 2 (Homo sapiens, UniProt P80365); assay: Inhibition of human 11beta-HSD2
T2 sequence (P80365 whole entry): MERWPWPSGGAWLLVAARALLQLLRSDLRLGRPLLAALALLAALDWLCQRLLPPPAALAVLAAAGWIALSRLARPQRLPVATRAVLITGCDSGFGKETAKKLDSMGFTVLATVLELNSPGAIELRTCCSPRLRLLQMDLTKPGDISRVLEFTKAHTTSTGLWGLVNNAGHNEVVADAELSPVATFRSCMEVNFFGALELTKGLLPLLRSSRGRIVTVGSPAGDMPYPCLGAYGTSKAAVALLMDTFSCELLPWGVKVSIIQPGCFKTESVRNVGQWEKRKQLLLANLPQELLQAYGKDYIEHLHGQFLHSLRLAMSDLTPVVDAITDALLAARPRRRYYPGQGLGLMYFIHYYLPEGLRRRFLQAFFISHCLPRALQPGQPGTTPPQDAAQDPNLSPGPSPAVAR

[8] = molecular target: T3, 11-beta-hydroxysteroid dehydrogenase type 2 (Mus musculus, UniProt P51661); assay: Inhibition of mouse 11beta-HSD2
T3 sequence (P51661 whole entry): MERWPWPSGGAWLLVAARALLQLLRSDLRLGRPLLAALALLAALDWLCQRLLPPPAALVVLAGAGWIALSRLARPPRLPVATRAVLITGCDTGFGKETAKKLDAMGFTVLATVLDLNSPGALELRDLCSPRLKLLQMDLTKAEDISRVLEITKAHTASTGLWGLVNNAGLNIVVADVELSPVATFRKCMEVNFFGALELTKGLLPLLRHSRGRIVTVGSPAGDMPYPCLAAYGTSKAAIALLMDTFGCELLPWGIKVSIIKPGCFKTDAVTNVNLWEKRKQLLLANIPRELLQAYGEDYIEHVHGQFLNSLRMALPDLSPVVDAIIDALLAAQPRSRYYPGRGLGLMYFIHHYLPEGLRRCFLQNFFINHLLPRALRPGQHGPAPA

[9] = Half life in C57BL/6 mouse; assay type: ADME, organism-based; settings: in vivo
Cytochrome P450 2D6 = Cytochrome P450 2D6 (Homo sapiens, UniProt P10635); assay: Inhibition of CYP2D6; assay type: ADME
Chain of Cytochrome P450 2D6 (P10635 whole entry): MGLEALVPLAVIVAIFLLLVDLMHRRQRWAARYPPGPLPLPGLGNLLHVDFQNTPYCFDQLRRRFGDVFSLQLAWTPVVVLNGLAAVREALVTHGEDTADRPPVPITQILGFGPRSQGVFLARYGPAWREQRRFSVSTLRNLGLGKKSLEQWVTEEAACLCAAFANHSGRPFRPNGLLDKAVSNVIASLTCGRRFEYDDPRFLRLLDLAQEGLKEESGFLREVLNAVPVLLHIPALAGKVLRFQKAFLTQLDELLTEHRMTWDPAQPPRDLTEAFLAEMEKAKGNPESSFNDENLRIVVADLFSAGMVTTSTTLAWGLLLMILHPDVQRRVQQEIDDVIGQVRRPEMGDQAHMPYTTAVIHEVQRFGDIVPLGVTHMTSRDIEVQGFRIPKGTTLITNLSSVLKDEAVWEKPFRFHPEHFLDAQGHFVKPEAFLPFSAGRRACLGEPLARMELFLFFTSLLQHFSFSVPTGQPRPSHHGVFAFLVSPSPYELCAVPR

[10] = Oral bioavailability in C57BL/6 mouse; assay type: ADME, organism-based; settings: in vivo
Cytochrome P450 3A4 = Cytochrome P450 3A4 (Homo sapiens, UniProt P08684); assay: Inhibition of CYP3A4; assay type: ADME
Chain of Cytochrome P450 3A4 (P08684 whole entry): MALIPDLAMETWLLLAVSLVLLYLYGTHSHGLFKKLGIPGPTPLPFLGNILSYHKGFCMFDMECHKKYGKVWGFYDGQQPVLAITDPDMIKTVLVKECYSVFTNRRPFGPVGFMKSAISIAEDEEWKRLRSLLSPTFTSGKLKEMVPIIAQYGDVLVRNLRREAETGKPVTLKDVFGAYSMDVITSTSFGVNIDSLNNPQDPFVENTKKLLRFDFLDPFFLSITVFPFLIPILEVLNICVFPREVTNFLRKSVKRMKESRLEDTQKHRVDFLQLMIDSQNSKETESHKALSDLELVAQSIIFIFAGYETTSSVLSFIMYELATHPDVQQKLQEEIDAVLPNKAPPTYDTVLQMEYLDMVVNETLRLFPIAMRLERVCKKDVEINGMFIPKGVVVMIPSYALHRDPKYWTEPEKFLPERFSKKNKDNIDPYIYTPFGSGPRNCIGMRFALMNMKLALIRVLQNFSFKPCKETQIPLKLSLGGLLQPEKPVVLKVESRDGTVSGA

Cytochrome P450 2C9 = Cytochrome P450 2C9 (Homo sapiens, UniProt P11712); assay: Inhibition of CYP2C9; assay type: ADME
Chain of Cytochrome P450 2C9 (P11712 whole entry): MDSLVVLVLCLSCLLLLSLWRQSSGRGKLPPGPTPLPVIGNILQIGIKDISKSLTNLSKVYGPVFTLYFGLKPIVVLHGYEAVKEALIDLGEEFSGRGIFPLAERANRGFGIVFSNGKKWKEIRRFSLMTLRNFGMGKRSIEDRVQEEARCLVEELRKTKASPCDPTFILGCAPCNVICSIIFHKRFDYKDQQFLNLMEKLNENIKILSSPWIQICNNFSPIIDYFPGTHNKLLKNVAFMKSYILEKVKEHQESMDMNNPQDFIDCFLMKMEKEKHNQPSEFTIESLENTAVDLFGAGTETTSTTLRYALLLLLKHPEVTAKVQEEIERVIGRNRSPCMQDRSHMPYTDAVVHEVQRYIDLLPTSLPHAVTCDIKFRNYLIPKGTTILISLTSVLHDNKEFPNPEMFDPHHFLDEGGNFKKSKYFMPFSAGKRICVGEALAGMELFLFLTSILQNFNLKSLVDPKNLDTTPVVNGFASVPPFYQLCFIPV

[11] = Blood clearance in C57BL/6 mouse; assay type: ADME, organism-based
Mus musculus [12] = assay: Inhibition of 11beta-HSD1 in ICR mouse assessed as conversion of [3H]cortisone to [3H]cortisol at 10 mg/kg, po after 1 hr by scintillation counting; assay type: functional

Activity [2] [%] | EC50 [3] [nM] | IC50 [5] [nM] | IC50 [6] [nM] | IC50 [7] [nM] | IC50 [8] [nM] | half-life [9] [h] | IC50 (Cytochrome P450 2D6) [nM] | bioavailability [10] [%] | IC50 (Cytochrome P450 3A4) [nM] | IC50 (Cytochrome P450 2C9) [nM] | clearance [11] [mL/min/kg] | Compound | inhibition in vivo at 10 mg/kg (Mus musculus [1]) [%] | inhibition in vivo at 10 mg/kg (Mus musculus [4]) [%] | inhibition in vivo at 10 mg/kg (Mus musculus [12]) [%]
23 | > 30000 | < 1 | 2.3 | > 4000 | > 4000 | 0.7 | 16000 | 30 | 10000 | 13000 | 54 | Cn1c(-c2ccc(-c3cnccn3)cc2)nnc1C1(c2ccc(Cl)cc2)CCC1 | 93 | 79 | 
15 | > 30000 | 2.8 | 8.8 | > 4000 | > 4000 |  |  |  |  |  |  | Cn1c(-c2ccc(-c3cc(=O)[nH]cn3)cc2)nnc1C1(c2ccc(Cl)cc2)CCC1 | 26 | 14 | 
43 | > 30000 | 1.6 | 1.8 | > 4000 | > 4000 |  |  |  |  |  |  | Cn1c(-c2ccc(-c3cccnc3)cc2F)nnc1C1(c2ccc(Cl)cc2)CCC1 | 86 | 15 | 
65 | 4600 | 0.75 | 1.5 | > 4000 | > 4000 |  |  |  |  |  |  | COc1cc(-c2cccnc2)ccc1-c1nnc(C2(c3ccc(Cl)cc3)CCC2)n1C | 82 | 21 | 
45 | > 30000 | 1 | 38 | > 4000 | > 4000 |  |  |  |  |  |  | Cn1c(-c2ccc(-c3cccnc3)cc2O)nnc1C1(c2ccc(Cl)cc2)CCC1 | 59 | 10 | 
74 | 4800 | 1.7 | 2.8 | > 4000 | > 4000 |  |  |  |  |  |  | Cn1c(-c2ccc(-c3cnccn3)cc2F)nnc1C1(c2ccc(Cl)cc2)CCC1 | 91 | 81 | 
45 | > 30000 | 1 | 3.7 | > 4000 | > 4000 |  |  |  |  |  |  | Cn1c(-c2ccc(-c3cnccn3)cc2OC(F)F)nnc1C1(c2ccc(Cl)cc2)CCC1 | 88 | 14 | 
23 | > 30000 | 2.3 | 5.5 | > 4000 | > 4000 | 6.8 | 25000 | 96 | 36000 | 26000 | 5 | Cn1c(-c2ccc(-c3cnccn3)cc2Cl)nnc1C1(c2ccc(Cl)cc2)CC(F)C1 (stereo not given) | 95 | 80 | 

The next lines start with the compound.

Compound | Activity [2] [%] | EC50 [3] [nM] | IC50 [5] [nM] | IC50 [6] [nM] | IC50 [7] [nM] | IC50 [8] [nM] | half-life [9] [h] | IC50 (Cytochrome P450 2D6) [nM] | bioavailability [10] [%] | IC50 (Cytochrome P450 3A4) [nM] | IC50 (Cytochrome P450 2C9) [nM] | clearance [11] [mL/min/kg] | inhibition in vivo at 10 mg/kg (Mus musculus [1]) [%] | inhibition in vivo at 10 mg/kg (Mus musculus [4]) [%] | inhibition in vivo at 10 mg/kg (Mus musculus [12]) [%]
Cn1c(-c2ccc(-c3cnc(N)nc3)cc2)nnc1C1(c2ccc(Cl)cc2)CCC1 | 3 | > 30000 | 2.2 | 2.2 | > 4000 | > 4000 |  |  |  |  |  |  | 34 | -5 | 
COc1ncc(-c2ccc(-c3nnc(C4(c5ccc(Cl)cc5)CCC4)n3C)cc2)c(OC)n1 | 35 | > 30000 | 2 | 14 | > 4000 | > 4000 |  |  |  |  |  |  | 59 | 10 | 
Cn1c(-c2ccc(-c3ccc(Cl)nn3)cc2)nnc1C1(c2ccc(Cl)cc2)CCC1 | 14 | > 30000 | 1.5 | 1.5 | > 4000 | > 4000 |  |  |  |  |  |  | 40 | -7 | 
Cc1noc(C)c1-c1ccc(-c2nnc(C3(c4ccc(Cl)cc4)CCC3)n2C)cc1 | 26 | > 30000 | 3.4 | 4.8 | > 4000 | > 4000 |  |  |  |  |  |  | 63 | 9 | 
Cn1c(-c2ccc(-c3ccon3)cc2)nnc1C1(c2ccc(Cl)cc2)CCC1 | 35 | > 30000 | 6 | 11 | > 4000 | > 4000 |  |  |  |  |  |  | 95 | 67 | 
Cn1c(-c2ccc(C(N)=O)cc2C(N)=O)nnc1C1(c2ccc(Cl)cc2)CCC1 | -7 | > 30000 | 150 | 2.2 | > 4000 | > 4000 |  |  |  |  |  |  | -11 | 0 | 
C1CCCn2c(nnc2C23CC4CC(CC(C4)C2)C3)CC1 |  |  | 98 | 7.8 | > 4000 | > 4000 |  |  |  |  |  |  | 21 |  | 31
